Source: publication PMC6108829 (Environmental Health Perspectives, 2018)
Structures can show the parent of a compound that is named as a salt.

Key:
[1] = in vivo; cited from earlier work
[2] = mouse, in vivo; cited from earlier work
[3] = Glucuronidation kinetics in pooled human liver microsomes (HPLC-UV); details: human, pH 7.4
Method: (§1) Pooled human liver microsomes ( 20mg/mL ) and pooled human intestinal microsomes ( 20mg/mL ) were from BD Biosciences. We first placed the reaction mixtures for 30 min on ice and then incubated them for 5 min at 37°C. The addition of uridine 5'-diphospho-glucuronic acid (Sigma-Aldrich) to a final concentration of 5 mM started the reaction. For the enzyme reactions, we used a temperature of 37°C; the incubation times differed, subject to the BP and microsome type regarded (Table 1). We terminated the glucuronidation reactions with the addition of 10μL perchloric acid (Merck). In the following step, we put the samples on ice for 15 min, centrifuged at 16,000×g for 10 min, and analyzed the supernatants using HPLC-UV.
(§2) We conducted the HPLC-UV analysis on an Agilent 1,100 series HPLC system (Agilent Technologies). For this, we injected 10μL of each sample onto a Poroshell 120 EC-C18 column ( 4.6×100mm , 2.7μm , Agilent Technologies) maintained at 40°C. The mobile phases were 0.1% formic acid (A) and acetonitrile (B). The elution of different BPs consisted of a linear gradient (see Table 2). We further analyzed the results with the GraphPad Prism software (version 5.04; GraphPad Software Inc.,) and selected the most suitable kinetic model (Michaelis-Menten or substrate inhibition, Equations 3 and 4), based on the curve fitting and the shape of the Eadie-Hofstee plots (see Figure S2).
(§3) Michaelis-Menten equation: (3) v=vmax[S]/Km+[S]
(§4) Substrate inhibition equation: (4) v=vmax[S]/Km+[S](1+[S]/Ksi )

human liver microsomes = assay: as above; details: for glucuronidation compared with the other analogs: at lower, physiologically relevant substrate concentrations, small intestine and liver (Figure 3B); for Hepatic glucuronidation vmax: in vitro value scaled with 32 mg protein/g liver, BPS: uncalibrated model
Method: as §1, §2, §3, §4

[4] = Glucuronidation kinetics in pooled human intestinal microsomes (HPLC-UV); details: human, pooled human intestinal microsomes, pH 7.4
Method: as §1, §2, §3, §4

[5] = system: human intestinal microsomes; assay: as above; details: for Glucuronidation in enterocytes vmax - used in basic model: scaled with 4.29 mg protein/kg BW; for Glucuronidation in enterocytes Ksi: substrate-inhibition kinetics
Method: as §1, §2, §3, §4

[6] = Margin of exposure (MOE = EC50/Cmax) back-of-the-envelope calculation; set-up: species or system human
estrogen receptor = system: estrogen receptor; set-up: method as in Kitamura et al. 2005; details: ref Kitamura et al. 2005, cited from earlier work; for EC50: estrogenic potency
estrogen receptors = system: estrogen receptors; set-up: method as in Kitamura et al. 2005; Stossi et al. 2014; details: ref Kitamura et al. 2005; Stossi et al. 2014; cited from earlier work
[7] = cited from earlier work; for logPow: ref Choi and Lee 2017; for pKa: ref SPARC 2011
[8] = set-up: method as in Dumont et al. 2011; details: third subject (oldest volunteer); ref Dumont et al. 2011; cited from earlier work
[9] = set-up: method as in Oh et al. (2018); details: ref Oh et al. (2018); cited from earlier work
[10] = EC50 (Kitamura et al. 2005)/highest Cmax of basic PBPK model (Table 9)

| Structure (SMILES) | AUC, mean (range), measured [1] | Cmax [1] [nM] | glucuronidation compared with the other analogs (human liver microsomes) | Hepatic glucuronidation vmax (human liver microsomes) | Km [4] [µM] | Glucuronidation in enterocytes vmax - used in basic model [5] [nmol/h/g bw] | Glucuronidation in enterocytes Ksi [5] | logPow [7] | pKa [7] | Km [3] [µM] | EC50 (estrogen receptor) [nM] | other results |
| --- | --- | --- | --- | --- | --- | --- | --- | --- | --- | --- | --- | --- |
| CC(C)(c1ccc(O)cc1)c1ccc(O[C@@H]2O[C@H](C(=O)O)[C@@H](O)[C@H](O)[C@H]2O)cc1 [BPA-g, BPA glucuronide] | 6.66 (5.52–8.34) nM*h for 1.5 h | 6.48 |  |  |  |  |  |  |  |  |  |  |
| CC(C)(c1ccc(O)cc1)c1ccc(OS(=O)(=O)O)cc1 [BPA-s, BPA sulfate] | 3.61 (2.60–4.52) nM*h for 1.5 h | 4.22 |  |  |  |  |  |  |  |  |  | share of metabolites present in plasma [2]: 0.5–4.8% |
| Oc1ccc(C(c2ccc(O)cc2)(C(F)(F)F)C(F)(F)F)cc1 [BPAF, bisphenol AF] |  |  | most effective | 5,660 nmol/h/g liver | 1.83 | 107 | 82,200 nM | 2.8 to 4.8 | ~9.2 |  |  | Km ([3]; pooled human liver microsomes): 4.21 µM; Hepatic glucuronidation Ksi (human liver microsomes; substrate-inhibition kinetics): 219,000 nM; MOE in serum of females of childbearing age ([6]; 2D-MC analysis, P95/P95): 1,860; MOE in gonads [6, 10]: 1,810; estrogenic potency, times higher than BPA (estrogen receptor; from EC50 values): 13 times; estrogenic potency, times higher than the potency of BPA (estrogen receptors): 7 to 13 times |
| Oc1ccc(Cc2ccc(O)cc2)cc1 [BPF, bisphenol F] |  |  |  | 3,600 nmol/h/g liver | 57 | 462 | 605,000 nM |  | ~7.6 | 17.9 | 1000 |  |
| O=S(=O)(O)Oc1ccc(Cc2ccc(O)cc2)cc1 [BPF-s] |  |  |  |  |  |  |  |  |  |  |  | share as major metabolite [8]: 75% |
| O=S(=O)(c1ccc(O)cc1)c1ccc(O)cc1 [BPS, bisphenol S] |  |  | least effective | 26,500 nmol/h/g liver | 354 | 563 | 711,000 nM | 1.7–2.1 | ~8.2 | 285 | 1100 | MOE in serum [6, 10]: 2,440; half-life, times longer than the half-life of BPA [9]: 2.7 times |
